Measured values as given in patent publication US11395821B2, “Treatment of EGFR-driven cancer with fewer side effects” (G1 Therapeutics, Inc., priority 2017, dated 2022).
“Also recorded” adds a separate entry of the source.

Experiments:
[1] = G1T38-02: G1T38-related TEAEs by CTCAE grade; format: in vivo, Humans; conditions: for G1T38-related TEAE: Alopecia / G1T38-related TEAE: Anaemia / G1T38-related TEAE: Blood bilirubin increased / G1T38-related TEAE: Blood creatinine increased / G1T38-related TEAE: Blood lactate dehydrogenase increased / G1T38-related TEAE: Blood urea increased / G1T38-related TEAE: Diarrhoea / G1T38-related TEAE: Dry eye / G1T38-related TEAE: Dry mouth / G1T38-related TEAE: Haematuria / G1T38-related TEAE: Lacrimation increased / G1T38-related TEAE: Leukopenia / G1T38-related TEAE: Monocyte count decreased / G1T38-related TEAE: Nausea / G1T38-related TEAE: Neutropenia / G1T38-related TEAE: Neutrophil count deceased / G1T38-related TEAE: Platelet count decreased / G1T38-related TEAE: Stomatitis / G1T38-related TEAE: Thombocytopenia / G1T38-related TEAE: Vomiting / G1T38-related TEAE: White blood cell count decreased / Number (%) of patients with any G1T38-related TEAEs: N = 18
[2] = tested on: H1975 (EGFR^L858R/T790M NSCLC Model); test: Example 1: Compound IV + afatinib in H1975 tumor bearing mice; format: in vivo; conditions: Compound IV 50 or 100 mg/kg in combination with afatinib 20 mg/kg, daily, 18 days
Protocol: (§1) The x-axis is days of treatment measured in time and the y-axis is tumor volume measured in mm^3.
(§2) Compound IV in combination with the EGFR-TKI afatinib was tested in an EGFR^L858R/T790M NSCLC model. The combination of Compound IV in dosages of 50 mg/kg and 100 mg/kg+afatinib was tested and compared to treatment regimens consisting of only Compound IV (in 50 mg/kg dose or a 100 mg/kg) or afatinib (20 mg/kg). H1975 (EGFR^L858R/T790M NSCLC Model) tumor bearing mice were treated daily. Tumors were measured twice a week until vehicle treated mice tumors reached about 1000 mm^3 (18 days). Data is plotted to compare tumor growth in each cohort during the 18 days of treatment.

[3] = Study G1T38-01: safety and tolerability in healthy subjects; format: in vivo, Humans
Text: Effects on hematologic parameters were not observed due to the limited duration of dosing.

[4] = tested on: EGFR^ex19del/T790M PDX NSCLC tumor fragments (TM00219, Jackson Labs); test: Example 4: Compound IV +/- osimertinib in EGFR ex19del/T790M PDX model; format: in vivo, NSG mice; conditions: once daily oral gavage 28 days
Text: The x-axis is days from initiation measured in time and the y-axis is mean tumor volume measured in mm^3.
The x-axis is days from initiation measured in time and the y-axis is median tumor volume measured in mm^3.
After 28 days tumors continued to be measured until they reached tumor burden (>2000 mm^3).

[5] = tested on: H1975 (EGFR^L858R/T790M NSCLC Model); test: Example 2: Compound IV + erlotinib in H1975 tumor bearing mice; format: in vivo; conditions: Compound IV 50 or 100 mg/kg in combination with erlotinib 70 mg/kg, daily, 18 days
Protocol: as §1
as §2, with “erlotinib” for “afatinib”, “mg/kg+erlotinib” for “mg/kg+afatinib”, “erlotinib (70” for “afatinib (20”

Compound: CC(C)N1CCN(c2ccc(Nc3ncc4cc5n(c4n3)C3(CCCCC3)CNC5=O)nc2)CC1 [Compound IV]
- G1T38-related TEAE: Alopecia ([1]; Grade 1-2): 1 (5.6) n (%)
- G1T38-related TEAE: Anaemia ([1]; Grade 1-2): 6 (33.3) n (%)
- G1T38-related TEAE: Blood bilirubin increased ([1]; Grade 1-2): 1 (5.6) n (%)
- G1T38-related TEAE: Blood creatinine increased ([1]; Grade 1-2): 2 (11.1) n (%)
- G1T38-related TEAE: Blood lactate dehydrogenase increased ([1]; Grade 1-2): 1 (5.6) n (%)
- G1T38-related TEAE: Blood urea increased ([1]; Grade 1-2): 1 (5.6) n (%)
- G1T38-related TEAE: Diarrhoea ([1]; Grade 1-2): 5 (27.8) n (%)
- G1T38-related TEAE: Dry eye ([1]; Grade 1-2): 1 (5.6) n (%)
- G1T38-related TEAE: Dry mouth ([1]; Grade 1-2): 1 (5.6) n (%)
- G1T38-related TEAE: Haematuria ([1]; Grade 1-2): 3 (16.7) n (%)
- G1T38-related TEAE: Lacrimation increased ([1]; Grade 1-2): 1 (5.6) n (%)
- G1T38-related TEAE: Leukopenia ([1]; Grade 1-2): 1 (5.6) n (%)
- G1T38-related TEAE: Monocyte count decreased ([1]; Grade 1-2): 1 (5.6) n (%)
- G1T38-related TEAE: Nausea ([1]; Grade 1-2): 5 (27.8) n (%)
- G1T38-related TEAE: Neutropenia ([1]; Grade 1-2): 3 (16.7) n (%)
- G1T38-related TEAE: Neutrophil count deceased ([1]; Grade 1-2): 7 (38.9) n (%)
- G1T38-related TEAE: Platelet count decreased ([1]; Grade 1-2): 2 (11.1) n (%)
- G1T38-related TEAE: Stomatitis ([1]; Grade 1-2): 1 (5.6) n (%)
- G1T38-related TEAE: Thombocytopenia ([1]; Grade 1-2): 1 (5.6) n (%)
- G1T38-related TEAE: Vomiting ([1]; Grade 1-2): 3 (16.7) n (%)
- G1T38-related TEAE: White blood cell count decreased ([1]; Grade 1-2): 7 (38.9) n (%)
- Number (%) of patients with any G1T38-related TEAEs ([1]; Grade 1-2): 11 (61.1) n (%)
- G1T38-related TEAE: Alopecia ([1]; Grade 3): 0 n (%)
- G1T38-related TEAE: Anaemia ([1]; Grade 3): 0 n (%)
- G1T38-related TEAE: Blood bilirubin increased ([1]; Grade 3): 0 n (%)
- G1T38-related TEAE: Blood creatinine increased ([1]; Grade 3): 0 n (%)
- G1T38-related TEAE: Blood lactate dehydrogenase increased ([1]; Grade 3): 0 n (%)
- G1T38-related TEAE: Blood urea increased ([1]; Grade 3): 0 n (%)
- G1T38-related TEAE: Diarrhoea ([1]; Grade 3): 0 n (%)
- G1T38-related TEAE: Dry eye ([1]; Grade 3): 0 n (%)
- G1T38-related TEAE: Dry mouth ([1]; Grade 3): 0 n (%)
- G1T38-related TEAE: Haematuria ([1]; Grade 3): 0 n (%)
- G1T38-related TEAE: Lacrimation increased ([1]; Grade 3): 0 n (%)
- G1T38-related TEAE: Leukopenia ([1]; Grade 3): 0 n (%)
- G1T38-related TEAE: Monocyte count decreased ([1]; Grade 3): 0 n (%)
- G1T38-related TEAE: Nausea ([1]; Grade 3): 0 n (%)
- G1T38-related TEAE: Neutropenia ([1]; Grade 3): 1 (5.6) n (%)
- G1T38-related TEAE: Neutrophil count deceased ([1]; Grade 3): 2 (11.1) n (%)
- G1T38-related TEAE: Platelet count decreased ([1]; Grade 3): 0 n (%)
- G1T38-related TEAE: Stomatitis ([1]; Grade 3): 0 n (%)
- G1T38-related TEAE: Thombocytopenia ([1]; Grade 3): 0 n (%)
- G1T38-related TEAE: Vomiting ([1]; Grade 3): 0 n (%)
- G1T38-related TEAE: White blood cell count decreased ([1]; Grade 3): 0 n (%)
- Number (%) of patients with any G1T38-related TEAEs ([1]; Grade 3): 3 (16.7) n (%)
- G1T38-related TEAE: Alopecia ([1]; Grade 4): 0 n (%)
- G1T38-related TEAE: Anaemia ([1]; Grade 4): 0 n (%)
- G1T38-related TEAE: Blood bilirubin increased ([1]; Grade 4): 0 n (%)
- G1T38-related TEAE: Blood creatinine increased ([1]; Grade 4): 0 n (%)
- G1T38-related TEAE: Blood lactate dehydrogenase increased ([1]; Grade 4): 0 n (%)
- G1T38-related TEAE: Blood urea increased ([1]; Grade 4): 0 n (%)
- G1T38-related TEAE: Diarrhoea ([1]; Grade 4): 0 n (%)
- G1T38-related TEAE: Dry eye ([1]; Grade 4): 0 n (%)
- G1T38-related TEAE: Dry mouth ([1]; Grade 4): 0 n (%)
- G1T38-related TEAE: Haematuria ([1]; Grade 4): 0 n (%)
- G1T38-related TEAE: Lacrimation increased ([1]; Grade 4): 0 n (%)
- G1T38-related TEAE: Leukopenia ([1]; Grade 4): 0 n (%)
- G1T38-related TEAE: Monocyte count decreased ([1]; Grade 4): 0 n (%)
- G1T38-related TEAE: Nausea ([1]; Grade 4): 0 n (%)
- G1T38-related TEAE: Neutropenia ([1]; Grade 4): 1 (5.0) n (%)
- G1T38-related TEAE: Neutrophil count deceased ([1]; Grade 4): 0 n (%)
- G1T38-related TEAE: Platelet count decreased ([1]; Grade 4): 0 n (%)
- G1T38-related TEAE: Stomatitis ([1]; Grade 4): 0 n (%)
- G1T38-related TEAE: Thombocytopenia ([1]; Grade 4): 0 n (%)
- G1T38-related TEAE: Vomiting ([1]; Grade 4): 0 n (%)
- G1T38-related TEAE: White blood cell count decreased ([1]; Grade 4): 0 n (%)
- Number (%) of patients with any G1T38-related TEAEs ([1]; Grade 4): 1 (5.6) n (%)
- G1T38-related TEAE: Alopecia ([1]; Grade 5): 0 n (%)
- G1T38-related TEAE: Anaemia ([1]; Grade 5): 0 n (%)
- G1T38-related TEAE: Blood bilirubin increased ([1]; Grade 5): 0 n (%)
- G1T38-related TEAE: Blood creatinine increased ([1]; Grade 5): 0 n (%)
- G1T38-related TEAE: Blood lactate dehydrogenase increased ([1]; Grade 5): 0 n (%)
- G1T38-related TEAE: Blood urea increased ([1]; Grade 5): 0 n (%)
- G1T38-related TEAE: Diarrhoea ([1]; Grade 5): 0 n (%)
- G1T38-related TEAE: Dry eye ([1]; Grade 5): 0 n (%)
- G1T38-related TEAE: Dry mouth ([1]; Grade 5): 0 n (%)
- G1T38-related TEAE: Haematuria ([1]; Grade 5): 0 n (%)
- G1T38-related TEAE: Lacrimation increased ([1]; Grade 5): 0 n (%)
- G1T38-related TEAE: Leukopenia ([1]; Grade 5): 0 n (%)
- G1T38-related TEAE: Monocyte count decreased ([1]; Grade 5): 0 n (%)
- G1T38-related TEAE: Nausea ([1]; Grade 5): 0 n (%)
- G1T38-related TEAE: Neutropenia ([1]; Grade 5): 0 n (%)
- G1T38-related TEAE: Neutrophil count deceased ([1]; Grade 5): 0 n (%)
- G1T38-related TEAE: Platelet count decreased ([1]; Grade 5): 0 n (%)
- G1T38-related TEAE: Stomatitis ([1]; Grade 5): 0 n (%)
- G1T38-related TEAE: Thombocytopenia ([1]; Grade 5): 0 n (%)
- G1T38-related TEAE: Vomiting ([1]; Grade 5): 0 n (%)
- G1T38-related TEAE: White blood cell count decreased ([1]; Grade 5): 0 n (%)
- Number (%) of patients with any G1T38-related TEAEs ([1]; Grade 5): 0 n (%)
- G1T38-related TEAE: Alopecia ([1]; Overall): 1 (5.6) n (%)
- G1T38-related TEAE: Anaemia ([1]; Overall): 6 (33.3) n (%)
- G1T38-related TEAE: Blood bilirubin increased ([1]; Overall): 1 (5.6) n (%)
- G1T38-related TEAE: Blood creatinine increased ([1]; Overall): 2 (11.1) n (%)
- G1T38-related TEAE: Blood lactate dehydrogenase increased ([1]; Overall): 1 (5.6) n (%)
- G1T38-related TEAE: Blood urea increased ([1]; Overall): 1 (5.6) n (%)
- G1T38-related TEAE: Diarrhoea ([1]; Overall): 5 (27.8) n (%)
- G1T38-related TEAE: Dry eye ([1]; Overall): 1 (5.6) n (%)
- G1T38-related TEAE: Dry mouth ([1]; Overall): 1 (5.6) n (%)
- G1T38-related TEAE: Haematuria ([1]; Overall): 3 (16.7) n (%)
- G1T38-related TEAE: Lacrimation increased ([1]; Overall): 1 (5.6) n (%)
- G1T38-related TEAE: Leukopenia ([1]; Overall): 1 (5.6) n (%)
- G1T38-related TEAE: Monocyte count decreased ([1]; Overall): 1 (5.6) n (%)
- G1T38-related TEAE: Nausea ([1]; Overall): 5 (27.8) n (%)
- G1T38-related TEAE: Neutropenia ([1]; Overall): 5 (27.8) n (%)
- G1T38-related TEAE: Neutrophil count deceased ([1]; Overall): 9 (50.0) n (%)
- G1T38-related TEAE: Platelet count decreased ([1]; Overall): 2 (11.1) n (%)
- G1T38-related TEAE: Stomatitis ([1]; Overall): 1 (5.6) n (%)
- G1T38-related TEAE: Thombocytopenia ([1]; Overall): 1 (5.6) n (%)
- G1T38-related TEAE: Vomiting ([1]; Overall): 3 (16.7) n (%)
- G1T38-related TEAE: White blood cell count decreased ([1]; Overall): 7 (38.9) n (%)
- Number (%) of patients with any G1T38-related TEAEs ([1]; Overall): 15 (83.3) n (%)
- more severe EGFR-TKI-related AEs ([1]; nonclinical and clinical data to date (see Example 6)): none of the more severe EGFR-TKI-related AEs have been observed
- afatinib efficacy and time to resistance (tumor volume) [2]: increased the afatinib efficacy and extended the time to resistance; also recorded: increases EGFR-TKI efficacy and extends time to resistance
- decrease of tumor volume, combination vs Compound IV alone and afatinib alone [2]: more effective at decreasing tumor volume
- effect of fed conditions on gastrointestinal tolerability ([3]; dosing under fed conditions): appeared to improve gastrointestinal tolerability
- effects on hematologic parameters ([3]; limited duration of dosing): not observed
- tolerability ([3]; single or twice daily oral doses, 3 to 600 mg/day, healthy male and female subjects): well to moderately tolerated
- most common moderate intensity TEAEs ([3]; subjects with moderate tolerability): gastrointestinal AEs were the most common moderate intensity treatment-emergent AEs
- tumor growth vs vehicle, combination ([4]; Compound IV 100 mg/kg + osimertinib 2.5 mg/kg): tumor stasis during dosing that was sustained post treatment; also recorded: delays tumor growth
- tumor growth vs vehicle, single agent ([4]; Compound IV 100 mg/kg or osimertinib 2.5 mg/kg alone): modest tumor growth inhibition
- erlotinib resistance (tumor volume) [5]: reversed erlotinib resistance; also recorded: reverses EGFR-TKI acquired resistance
